Test results taken from PMC8480901 (PLoS ONE, 2021).
Values joined by “and” are separate entries in the source; they are usually repeats but may differ in a detail not shown here. Equal values may be shown once.

Test system: J774.2 mouse macrophages
Assay: LPS-induced cytokine and chemokine levels in J774.2 mouse macrophage cell supernatant (ELISA)
Assay type: cell-based
Details: LPS; for TNF-α / CCl2, % reduction / CCl2, Mean / GM-CSF % reduction / GM-CSF Mean / IL-1β % reduction / IL-1β Mean / IL-6 % reduction / IL-6 Mean / TNF-α % reduction / TNF-α Mean / CCl2 / CXCL1 / GM-CSF / IL-1β / IL-6: J774.2 supernatant; for TNF-α / CCl2 / CXCL1 / GM-CSF / IL-1β / IL-6 / CXCL2 / MMP9: individual replicate; for CXCL2 / MMP9: J774.2 cells

C=C[C@]1(C)C[C@@H](OC(=O)CS[C@@H]2CC[C@@H](N)C[C@H]2O)[C@]2(C)[C@H](C)CC[C@]3(CCC(=O)[C@H]32)[C@@H](C)[C@@H]1O [Lefamulin]
TNF-α (0.3 µM): 1489.0 pg/mL and 1477.5 pg/mL
CCl2, % reduction (1 µM): -9%
CCl2, Mean (1 µM): 39289 pg/mL
GM-CSF % reduction (1 µM): 60%
GM-CSF Mean (1 µM): 564 pg/mL
IL-1β % reduction (1 µM): -12%
IL-1β Mean (1 µM): 213 pg/mL
IL-6 % reduction (1 µM): 0.856%
IL-6 Mean (1 µM): 76721 pg/mL
TNF-α % reduction (1 µM): -11%
TNF-α Mean (1 µM): 1515 pg/mL
CCl2 (1 µM): 38237.3 pg/mL and 40341.1 pg/mL
CXCL1 (1 µM): 25.5 pg/mL and 26.1 pg/mL
GM-CSF (1 µM): 597.3 pg/mL and 530.6 pg/mL
IL-1β (1 µM): 223.29 pg/mL and 203.668 pg/mL
IL-6 (1 µM): 75165 pg/mL and 78277 pg/mL
TNF-α (1 µM): 1503.6 pg/mL and 1525.6 pg/mL
CCl2, % reduction (3 µM): -16%
CCl2, Mean (3 µM): 41389 pg/mL
GM-CSF % reduction (3 µM): 51%
GM-CSF Mean (3 µM): 681 pg/mL
IL-1β % reduction (3 µM): 12%
IL-1β Mean (3 µM): 168 pg/mL
IL-6 % reduction (3 µM): 0.505%
IL-6 Mean (3 µM): 76992 pg/mL
TNF-α % reduction (3 µM): -11%
TNF-α Mean (3 µM): 1517 pg/mL
CCl2 (3 µM): 47549.1 pg/mL and 35229.8 pg/mL
CXCL1 (3 µM): 27.5 pg/mL and 27.6 pg/mL
GM-CSF (3 µM): 645.8 pg/mL and 715.5 pg/mL
IL-1β (3 µM): 151.548 pg/mL and 184.21 pg/mL
IL-6 (3 µM): 76816 pg/mL and 77168 pg/mL
TNF-α (3 µM): 1470.9 pg/mL and 1563.2 pg/mL
CCl2, % reduction (10 µM): -20%
CCl2, Mean (10 µM): 42850 pg/mL
GM-CSF % reduction (10 µM): 25%
GM-CSF Mean (10 µM): 1034 pg/mL
IL-1β % reduction (10 µM): 16%
IL-1β Mean (10 µM): 160 pg/mL
IL-6 % reduction (10 µM): 11%
IL-6 Mean (10 µM): 69181 pg/mL
TNF-α % reduction (10 µM): -18%
TNF-α Mean (10 µM): 1616 pg/mL
CCl2 (10 µM): 49014.8 pg/mL and 36684.7 pg/mL
CXCL1 (10 µM): 35.9 pg/mL and 33.8 pg/mL
GM-CSF (10 µM): 1124.4 pg/mL and 943.6 pg/mL
IL-1β (10 µM): 178.332 pg/mL and 142.562 pg/mL
IL-6 (10 µM): 73782 pg/mL and 64579 pg/mL
TNF-α (10 µM): 1578.1 pg/mL and 1653.1 pg/mL
CCl2, % reduction (30 µM): -35%
CCl2, Mean (30 µM): 47970 pg/mL
GM-CSF % reduction (30 µM): -22%
GM-CSF Mean (30 µM): 1662 pg/mL
IL-1β % reduction (30 µM): 6%
IL-1β Mean (30 µM): 179 pg/mL
IL-6 % reduction (30 µM): 25%
IL-6 Mean (30 µM): 57940 pg/mL
TNF-α % reduction (30 µM): -31%
TNF-α Mean (30 µM): 1789 pg/mL
CCl2 (30 µM): 51706.3 pg/mL and 44234.6 pg/mL
CXCL1 (30 µM): 87.9 pg/mL and 85.2 pg/mL
GM-CSF (30 µM): 1753.9 pg/mL and 1570.0 pg/mL
IL-1β (30 µM): 181.679 pg/mL and 176.699 pg/mL
IL-6 (30 µM): 56206 pg/mL and 59673 pg/mL
TNF-α (30 µM): 1766.5 pg/mL and 1811.5 pg/mL
CCl2, % reduction (100 µM): 26%
CCl2, Mean (100 µM): 27179 pg/mL
GM-CSF % reduction (100 µM): -29%
GM-CSF Mean (100 µM): 1755 pg/mL
IL-1β % reduction (100 µM): -71%
IL-1β Mean (100 µM): 325 pg/mL
IL-6 % reduction (100 µM): 46%
IL-6 Mean (100 µM): 42097 pg/mL
TNF-α % reduction (100 µM): -249%
TNF-α Mean (100 µM): 4717 pg/mL
CCl2 (100 µM): 26262.5 pg/mL and 28095.5 pg/mL
CXCL1 (100 µM): 258.9 pg/mL and 215.6 pg/mL
GM-CSF (100 µM): 1833.3 pg/mL and 1676.9 pg/mL
IL-1β (100 µM): 330.455 pg/mL and 319.964 pg/mL
IL-6 (100 µM): 40652 pg/mL and 43542 pg/mL
TNF-α (100 µM): 4063.6 pg/mL and 5370.1 pg/mL
CXCL2 (compound 0.03 µM): 31852.1 pg/mL and 31453.1 pg/mL
MMP9 (compound 0.03 µM): 895.68 pg/mL and 982.757 pg/mL
CXCL2 (compound 0.1 µM): 30865.4 pg/mL and 29898.5 pg/mL
MMP9 (compound 0.1 µM): 770.463 pg/mL and 867.766 pg/mL
CXCL2 (compound 0.3 µM): 32714.1 pg/mL and 32124.3 pg/mL
MMP9 (compound 0.3 µM): 798.08 pg/mL and 882.55 pg/mL
CXCL2 (compound 1 µM): 35082.5 pg/mL and 36713.0 pg/mL
MMP9 (compound 1 µM): 879.359 pg/mL and 1004.8 pg/mL
CXCL2 (compound 3 µM): 37039.4 pg/mL and 32794.8 pg/mL
MMP9 (compound 3 µM): 913.107 pg/mL and 886.534 pg/mL
CXCL2 (compound 10 µM): 36052.8 pg/mL and 33589.2 pg/mL
MMP9 (compound 10 µM): 894.885 pg/mL and 781.214 pg/mL
CXCL2 (compound 30 µM): 37378.3 pg/mL and 38345.7 pg/mL
MMP9 (compound 30 µM): 446.696 pg/mL and 398.398 pg/mL
CXCL2 (compound 100 µM): 37906.2 pg/mL and 37582.2 pg/mL
MMP9 (compound 100 µM): 104.703 pg/mL and 78.135 pg/mL
